# Laboratory results: patent publication US7060733B2, “Methods for treating pancreatitis with curcumin compounds and inhibitors of reactive oxygen species” (The Regents of the University of California, priority 2002, dated 2006)
# Entries after “also recorded” stand apart in the source; their conditions may differ.
# What was measured:
# [1] = Solubility of curcumin compounds; type: physicochemical; details: dissolved in DMSO, veins of the rat
# [2] = tested on: NF-κB; experiment: CCK-induced NF-κB activation in isolated pancreatic acinar cells (EMSA); type: cell-based, rat
# Method: To confirm that the effects of curcumin occur in the pancreatic acinar cell, the effects of curcumin on the activation of NF-κB and AP-1 in vitro in CCK-stimulated pancreatic acini. Pancreatic acini were prepared from rat pancreas using the collagenase digestion method as described by Pandol S J, et al. (1982) J. Biol. Chem. 257:12024–12029, which is herein incorporated by reference, and then incubated at 37° C. in 199 medium (GIBCO, Rockville, Md.) known in the art. See Blinman T A, et al. (2000); Gukovskaya A S, et al. (1997); Gulkovsky I, et al. (1998); and Zaninovic V, et al. (2000).
# EMSAs for NF-κB and AP-1 were performed on nuclear proteins extracted from each sample as provided above.
# Nuclear protein extracts were prepared by methods known in the art. See Blinman T A, et al. (2000); Gukovskaya A S, et al. (1997); Gukovsky I, et al. (1998); Pandol S J, et al. (1999); Vaquero E, et al. (2001); and Zaninovic V, et al. (2000). Briefly, samples of pancreatic tissue or isolated acini were rinsed in ice-cold PBS and homogenized in hypotonic Buffer A (20 mM β-glycerophosphate, 10 mM HEPES, pH 7.6, 1.5 mM MgCl2, 10 mM KCl, 10 mM Na2MoO4, 0.1 mM Na3VO4, 1 mM dithiothreitol (DTT), 1 mM phenylmethylsulfonyl fluoride (PMSF), 5 μg/ml each of protease inhibitors pepstatin, leupeptin, chymostatin, antipain and aprotinin). […]
# [3] = tested on: caspase-3; experiment: Caspase-3-like (DEVDase) activity in pancreatic tissue lysates; type: in vivo, rat; details: for Caspase-3-like (DEVDase) activity versus pancreatitis without curcumin: p<0.05; for augmentation of the increase in DEVDase activity: rat pancreas
# Method: […] activity was measured by methods known in the art. See Gukovskaya A S, et al. (2002). Briefly, samples of pancreatic tissue were rinsed with ice-cold PBS and homogenized in a lysis buffer comprising 150 mM NaCl, 50 mM Tris-HCL (pH 7.5), 0.5% Igepal CA-630 (Sigma, St. Louis, Mo.), and 0.5 mM EDTA. Lysates were centrifuged for 10 minutes at 16,000× g and the supernatants were collected. Caspase activity was determined at 37° C. in a buffer comprising 25 mM HEPES (pH 7.5), 10% sucrose, 0.1% CHAPS, 10 mM DTT and […] Ac-DEVD-AMC, a specific fluorogenic substrate for measurement of caspase-3-like activity (AnaSpec, San Jose, Calif.). Cleavage of the substrate releases AMC that emits a fluorescent signal with excitation at 380 nm and emission at 440 nm. Fluorescence was calibrated using a standard curve for AMC. The data were expressed as mol AMC/min/mg protein.
compound,measurement,setting,value
COc1cc(/C=C/C(=O)CC(=O)/C=C/c2ccc(O)c(OC)c2)ccc1O [curcumin],behaviour of DMSO solution diluted in saline on intravenous infusion,[1],precipitated
same,CCK-induced activation of NF-κB in isolated acinar cells,"[2]; 1 h with compound, then 0.1 μM CCK 30 min",inhibits; also recorded: abolished; also recorded: blocked; also recorded: attenuates; also recorded: not highly potent
same,basal NF-κB binding activity in acinar cells,"[2]; control cells, incubated without CCK",inhibited
same,Caspase-3-like (DEVDase) activity versus pancreatitis without curcumin,[3]; EtOH+CCK pancreatitis,significantly higher
same,augmentation of the increase in DEVDase activity,[3]; EtOH+CCK pancreatitis,greater than 2 fold
same,Caspase-3-like (DEVDase) activity versus pancreatitis without curcumin,[3]; cerulein pancreatitis,significantly higher
same,augmentation of the increase in DEVDase activity,[3]; cerulein pancreatitis,greater than 2 fold
